Test results published in patent US9284297B2, “Halofuginone analogs for inhibition of tRNA synthetases and uses thereof” (President and Fellows of Harvard College, priority 2008, dated 2016).

Tests used:
[1] = tested on: Human primary dermal fibroblasts; experiment: Inhibition of cell spreading in a fibroblast model; format: cell-based; design: key: “+++” vs. “++” vs. “+” in general denotes ˜4-fold differences in potency; “+++” vs. “++” vs. “+” in general denotes ˜4-fold differences in potency; “+++” vs. “++” vs. “+” in general denotes ˜4-fold differences in potency; “−” denotes no activity at any dose tested, up to 1000× the effective dose of halofuginone; conditions: spreading of cells assessed by light microscopy 28 hours after treatment
Experimental: The ability of halofuginone and analogs thereof to inhibit the spreading of freshly plated primary dermal fibroblasts was examined. Human primary dermal fibroblasts were replated and halofuginone added immediately after replating; spreading of cells was assessed by light microscopy 28 hours after treatment with compound. “+++” vs. “++” vs. “+” in general denotes ˜4-fold differences in potency. “−” denotes no activity at any dose tested, up to 1000× the effective dose of halofuginone.

[2] = tested on: eIF2α phosphorylation and ATF4 protein levels in CD4+ CD25− T cells; experiment: Amino acid response (AAR) pathway activation in T cells, western blot; format: cell-based, mice
Experimental: CD4+ CD25− T cells purified from wild type of GCN2−/− mice were activated through TCR for 4 hours in the presence of halofuginone (10 nM) or 9 (MAZ1310, 10 nM). Whole cell lysates were analyzed by SDS PAGE/Western blot and antibodies indicated.
Naïve T-cells were treated to stimulate the T-cell receptor (TCR) in the presence or absence of 10 nM halofuginone in the presence of 1 mM added amino acid, and then assayed for eIF2alpha activity phosphorylation by SDS PAGE/Western blot.
HF induced detectable eIF2α phosphorylation at 2.5 nM, and this effect plateaued at 5-10 nM HF (FIG. 7D). […] AAR activation was a general consequence of HF treatment; HF induced eIF2α phosphorylation, not only in T cells activated in Th17-priming conditions, but also in resting naïve T cells and T cells activated in ThN, Th1, Th2, and iTreg polarizing conditions (FIG. 7F). […] Thus, the rapid activation of the AAR pathway by HF could underlie both its selective inhibition of Th17 differentiation and its effects on fibroblasts (Pines and Nagler, Gen. Pharmacol. 30:445, 1998).
To delineate the stress response pathway activated by HF, the effects of amino acid starvation with those of tunicamycin (an inducer of ER stress) or HF treatment during T cell activation were compared.
Whole cell lysates were generated from T cells activated for the indicated times. For STAT3 and Smad2/3 western blots cells were harvested, washed in PBS and lysed in 50 mM Tris, pH 7.4, 0.1% SDS, 1% Triton-X100, 140 mM NaCl, 1 mM EDTA, 1 mM EGTA supplemented with protease inhibitors tablets (Roche, Germany), 1 mM NaF and 1 mM Na3VO4. For eIF2α and ATF4 western blots, cells were harvested as above and lysed in 50 mM Tris, pH 7.4, 2% SDS, 20% glycerol and 2 mM EDTA supplemented with protease and phosphatase inhibitors as above. All lysates were cleared via centrifugation and 15-30 μg of protein was resolved by SDS-PAGE. Protein was transferred to nitrocellulose membranes, blocked and blotted using specific antibodies. Antibodies used for western blot analysis were anti-phospho-Smad2, anti-STAT3 (pY705), anti-STAT3, anti-eIF2α^pS51, anti-eIF2α (all from Cell Signaling Technology, Danvers, Mass.). Anti-ATF4/CREB2 and anti-β-actin were purchased from Santa Cruz Biotechnology (Santa Cruz, Calif.). HRP-conjugated secondary antibodies were all purchased from Sigma, with the exception of HRP-conjugated anti-armenian hamster antibody (Jackson Immunoresearch, West Grove, Pa.).

[3] = target: T1, methionyl tRNA synthetase (Oryctolagus cuniculus, UniProt G1SSX5); experiment: Incorporation of 35S-labeled methionine into tRNA in rabbit reticulocyte lysate; format: biochemical; conditions: crude in vitro translation system
T1 construct: from tissue; host or cells: rabbit reticulocyte lysate
T1 sequence (G1SSX5 1-900): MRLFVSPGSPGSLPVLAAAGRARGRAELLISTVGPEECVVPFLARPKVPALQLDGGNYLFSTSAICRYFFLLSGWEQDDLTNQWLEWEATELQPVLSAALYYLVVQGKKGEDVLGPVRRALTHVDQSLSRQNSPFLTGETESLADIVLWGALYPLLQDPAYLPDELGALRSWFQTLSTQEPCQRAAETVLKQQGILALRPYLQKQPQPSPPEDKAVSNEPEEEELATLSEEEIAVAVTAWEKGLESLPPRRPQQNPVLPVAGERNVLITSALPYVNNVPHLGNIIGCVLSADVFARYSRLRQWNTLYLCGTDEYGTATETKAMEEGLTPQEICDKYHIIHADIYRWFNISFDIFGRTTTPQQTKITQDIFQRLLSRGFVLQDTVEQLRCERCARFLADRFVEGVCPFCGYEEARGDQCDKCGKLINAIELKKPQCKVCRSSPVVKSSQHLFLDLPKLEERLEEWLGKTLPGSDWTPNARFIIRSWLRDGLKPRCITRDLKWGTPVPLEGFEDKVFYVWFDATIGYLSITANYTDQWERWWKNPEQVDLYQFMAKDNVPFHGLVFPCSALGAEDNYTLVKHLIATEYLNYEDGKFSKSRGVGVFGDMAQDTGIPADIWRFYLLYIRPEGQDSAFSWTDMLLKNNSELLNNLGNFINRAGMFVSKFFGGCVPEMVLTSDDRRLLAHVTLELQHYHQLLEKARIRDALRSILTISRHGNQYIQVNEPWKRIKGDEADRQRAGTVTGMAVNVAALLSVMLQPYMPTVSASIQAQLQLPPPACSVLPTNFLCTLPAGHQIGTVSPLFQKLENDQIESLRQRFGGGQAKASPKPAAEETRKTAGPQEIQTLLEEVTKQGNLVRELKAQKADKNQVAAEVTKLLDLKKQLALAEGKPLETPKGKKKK
Experimental: Total RNA was extracted with acidic phenol-chloroform and tRNA was isolated using miRVANA microRNA isolation kit. Radioisotope incorporation into tRNA was measured in a scintillation counter.

[4] = tested on: CD4+ CD25− T cells (Th1, Th2, iTreg differentiation, proliferation, CD25), CD8+ T cells, B cells; conditions: cited from earlier work
[5] = tested on: TGFβ-induced Smad phosphorylation and lymphocyte responses to TGFβ; conditions: cited from earlier work
dermal ECM deposition = conditions: introduced intraperitoneally, added to food, or applied locally; cited from earlier work
[6] = in vivo; cited from earlier work

O=C(CC1NCCCC1O)Cn1cnc2cc(Br)c(Cl)cc2c1=O (stereo not shown) [Compound 1, 7-bromo-6-chloro-3-[3-(3-hydroxy-2-piperidinyl)-2-oxopropyl]-4(3H)-quinazolinone]
Fibroblast inhibition [1]: +++ | time to maximum eIF2α phosphorylation ([2]; 10 nM HF): ≤ 2 h | rescue of eIF2alpha phosphorylation by added amino acid ([2]; 10 nM halofuginone, 1 mM added amino acid): blocked by added proline | phosphorylation of Ser51 of eIF2alpha, GCN2 dependence ([2]; 10 nM, 4 hours, T cells from wild type or GCN2−/− mice): leads to phosphorylation of Ser51 of eif2alpha only in wild type cells and not in GCN2−/− cells | concentration at which eIF2α phosphorylation plateaued ([2]; 4 hours-post TCR activation): 5 to 10 nM | concentration inducing detectable eIF2α phosphorylation ([2]; 4 hours-post TCR activation): 2.5 nM | concentration with highest ATF4 expression levels ([2]; 4 hours-post TCR activation): 5 to 10 nM | stress response pathway: eIF2α phosphorylation, ATF4 expression, Xbp-1 splicing ([2]; 4 hours, 10 nM HF or 1 μg/ml tunicamycin): inducing eIF2α phosphorylation without promoting Xbp-1 splicing | inhibition of 35S methionine incorporation into tRNA [3]: not a different tRNA synthetase (methionyl tRNA synthetase) | concentrations that generally inhibit CD4+ T cell, CD8+ T cell, and B220+ B cell activation [4]: 20 to 40 nM | concentrations attenuating TGFβ signaling [5]: > 50 nM | dermal ECM deposition (dermal ECM deposition): reduces excess dermal ECM deposition | toxicity in humans [6]: some toxicity in humans, such as nausea, vomiting, and fatigue, and possibly bleeding complications
